Laboratory results from patent US20180353462A1, “[…] AGENTS […] FLAVONOID DERIVATIVES TARGETING KINASES, SIRTUINS AND ONCOGENIC AGENTS FOR THE TREATMENT OF CANCERS” (priority 2015, published 2018).

Tests used:
PIM-1 = molecular target: T1, PIM-1 (Homo sapiens, UniProt P11309); test: Kinase competition binding assay, PIM-1; conditions: Table 1 kinase panel
T1 construct: full-length constructs were used for small, single domain kinases; T7 phage fusion (most assays) or DNA tag for qPCR (HEK-293-made kinases); made in house
Protocol: (§1) Cannabis flavonoids and their analogs were subjected to kinase inhibition assay. The compounds were first screened at a single concentration of 10 μM in the primary assay. […]. To determine the kd or IC50 values, competition binding assays were established, authenticated and executed as described previously. Fabian et al., “A Small Molecule-Kinase Interaction Map For Clinical Kinase Inhibitors.”, Nat Biotechnol, 23(3):329-36, Epub (2005). See also, Karaman et al., “A Quantitative Analysis Of Kinase Inhibitor Selectivity”, Nat. Biotechnol. […] For most assays, kinases were fused to T7 phage strains (Fabian, supra) and for the other assays, kinases were produced in HEK-293 cells after which they were tagged with DNA for quantitative PCR detection. In general, full-length constructs were used for small, single domain kinases, and catalytic domain constructs for large multi-domain kinases. The binding assays utilized streptavidin-coated magnetic beads treated with biotinylated small molecule ligands for 30 minutes at room temperature which generated affinity resins for the kinase assays. The liganded beads were blocked with excess biotin and washed with blocking buffer (SeaBlock (Pierce), 1% BSA, 0.05% Tween 20, 1 mM DTT) to remove unbound ligand and to reduce non-specific phage binding. […] Test compounds were prepared as 40× stocks in 100% DMSO and diluted directly into the assay (Final DMSO concentration=2.5%). All reactions were performed in polypropylene 384-well plates in a final volume of 0.04 ml. […] The beads were then re-suspended in elution buffer (1×PBS, 0.05% Tween 20, 0.5 μM non-biotinylated affinity ligand) and incubated at room temperature with shaking for 30 minutes. The kinase concentration in the eluates was measured by quantitative PCR. An illustration of the kinase interaction process is presented below. Kd/IC50 values were determined using a standard dose response curve using the hill equation. Curves were fitted using a non-linear least square fit with the Levenberg-Marquardt algorithm.
(§2) The compound(s) were screened at 10 μM and results for primary screen binding interactions are reported as ‘% Ctrl’, where lower numbers indicate stronger hits in the matrix.

SIRT-1 = molecular target: T2, SIRT-1 (Homo sapiens, UniProt Q96EB6); test: Inhibition of sirtuins, SIRT-1; type: biochemical; conditions: Table 3 SIRT
T2 sequence (Q96EB6 1-747): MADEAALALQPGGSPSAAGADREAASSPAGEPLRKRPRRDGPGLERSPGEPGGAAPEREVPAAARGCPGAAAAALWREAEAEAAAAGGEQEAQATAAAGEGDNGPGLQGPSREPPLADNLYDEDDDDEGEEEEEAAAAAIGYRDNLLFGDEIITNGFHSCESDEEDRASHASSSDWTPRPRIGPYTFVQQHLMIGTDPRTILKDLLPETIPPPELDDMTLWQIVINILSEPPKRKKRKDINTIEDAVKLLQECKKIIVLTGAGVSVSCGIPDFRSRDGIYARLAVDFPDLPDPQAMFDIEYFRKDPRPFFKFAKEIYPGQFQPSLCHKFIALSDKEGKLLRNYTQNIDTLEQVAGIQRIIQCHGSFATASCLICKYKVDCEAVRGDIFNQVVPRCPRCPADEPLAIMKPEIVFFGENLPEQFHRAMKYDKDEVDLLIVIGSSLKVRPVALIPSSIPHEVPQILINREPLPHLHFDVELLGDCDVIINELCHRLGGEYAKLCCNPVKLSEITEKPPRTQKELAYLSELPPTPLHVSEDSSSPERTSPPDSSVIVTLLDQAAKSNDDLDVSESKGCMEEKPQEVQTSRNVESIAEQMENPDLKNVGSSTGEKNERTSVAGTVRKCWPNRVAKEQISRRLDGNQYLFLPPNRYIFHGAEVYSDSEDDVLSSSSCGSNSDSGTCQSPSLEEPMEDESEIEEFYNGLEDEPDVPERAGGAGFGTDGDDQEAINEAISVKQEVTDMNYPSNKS
Description: Inhibition of Sirtuins, Matrix Metalloproteinase, Bromodomains was Also Confirmed Using Standard Protocols and the Results are Present in Table 2.

EPHB6 = molecular target: T3, EPHB6 (Homo sapiens, UniProt O15197); test: Kinase competition binding assay, EPHB6; conditions: Table 1 kinase panel
T3 construct: made in house
T3 sequence (O15197 32-1021): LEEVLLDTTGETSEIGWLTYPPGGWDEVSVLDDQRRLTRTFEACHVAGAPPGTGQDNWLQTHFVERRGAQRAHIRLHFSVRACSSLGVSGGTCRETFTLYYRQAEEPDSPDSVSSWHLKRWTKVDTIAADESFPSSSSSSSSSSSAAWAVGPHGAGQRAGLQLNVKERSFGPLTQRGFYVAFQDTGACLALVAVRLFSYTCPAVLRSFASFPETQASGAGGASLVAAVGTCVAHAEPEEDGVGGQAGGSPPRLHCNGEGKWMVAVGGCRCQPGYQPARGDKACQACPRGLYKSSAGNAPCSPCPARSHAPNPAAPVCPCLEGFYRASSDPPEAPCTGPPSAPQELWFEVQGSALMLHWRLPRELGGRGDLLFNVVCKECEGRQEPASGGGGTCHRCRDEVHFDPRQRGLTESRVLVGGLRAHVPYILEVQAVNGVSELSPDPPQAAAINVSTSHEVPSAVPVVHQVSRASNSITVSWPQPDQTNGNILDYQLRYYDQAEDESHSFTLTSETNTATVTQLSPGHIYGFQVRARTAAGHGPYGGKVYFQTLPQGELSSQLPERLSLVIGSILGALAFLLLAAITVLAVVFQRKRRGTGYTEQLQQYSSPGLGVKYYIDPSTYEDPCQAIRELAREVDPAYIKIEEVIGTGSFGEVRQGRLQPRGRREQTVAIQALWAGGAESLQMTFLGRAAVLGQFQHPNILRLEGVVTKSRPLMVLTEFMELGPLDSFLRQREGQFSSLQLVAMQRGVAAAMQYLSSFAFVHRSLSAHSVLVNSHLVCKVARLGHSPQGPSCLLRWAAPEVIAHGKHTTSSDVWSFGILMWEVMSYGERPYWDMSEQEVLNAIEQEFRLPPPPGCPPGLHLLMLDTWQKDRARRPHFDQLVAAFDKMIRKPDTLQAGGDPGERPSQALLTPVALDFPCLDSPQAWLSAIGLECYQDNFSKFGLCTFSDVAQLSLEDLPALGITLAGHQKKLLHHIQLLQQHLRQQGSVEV
Protocol: as §1, §2

In the case of `COc1cc(-c2cc(=O)c3c(O)c(C/C=C(\C)CCC=C(C)C)c(O)cc3o2)ccc1O` [FBL-03A], the IC50 (PIM-1) is reported as greater than 20000 nM, the IC50 (SIRT-1) is reported as 19 µM and the IC50 (EPHB6) is reported as greater than 20000 nM.

For `COc1cc(-c2cc(=O)c3c(O)c(CC=C(C)C)c(O)cc3o2)ccc1O` [FBL-03B], the IC50 (SIRT-1) was 27.4 µM and the IC50 (EPHB6) was greater than 1000 nM.

`COc1cc(-c2cc(=O)c3c(O)cc(O)c(C/C=C(\C)CCC=C(C)C)c3o2)ccc1O` [FBL-03C] was tested, and the IC50 (PIM-1) was greater than 1000 nM, the IC50 (SIRT-1) was 39.5 µM and the IC50 (EPHB6) was 270 nM.

`COc1ccc(-c2cc(=O)c3c(O)c(C/C=C(\C)CCC=C(C)C)c(O)cc3o2)cc1OC` [FBL-03D] gave an IC50 (PIM-1) greater than 30000 nM and an IC50 (EPHB6) greater than 30000 nM.

With `COc1cc(-c2cc(=O)c3c(O)cc(O)c(CC=C(C)C)c3o2)ccc1O` [FBL-03G] the IC50 (PIM-1) was 78 nM and the IC50 (EPHB6) was greater than 1000 nM.
